Laboratory results as given in ChEMBL document CHEMBL4651402, “Screening of ~5500 FDA-approved drugs and clinical candidates for anti-SARS-CoV-2 activity” (2021).
Counter-ions that a name gives are not always drawn.

System: SARS-CoV-2
Assay: microbe, parasite or virus in culture
Settings: Severe acute respiratory syndrome coronavirus 2, Vero C1008, 48 h

| Structure (SMILES) | IC50 [µM] | IC50 (read-out: pIC50 (converted)) [µM] |
| --- | --- | --- |
| CS(=O)(=O)c1ccc(-c2cnc(N)c(-c3ccc(C(F)(F)F)nc3)c2)cc1 [MMV-048] | > 20 | > 20 |
| Nc1ccccc1NC(=O)c1ccc(CNc2nccc(-c3cccnc3)n2)cc1 [MOCETINOSTAT] | > 20 | > 20 |
| O=C(NCCN1CCOCC1)c1ccc(Cl)cc1 [MOCLOBEMIDE] | > 20 | > 20 |
| NC(=O)C[S+]([O-])C(c1ccccc1)c1ccccc1 (configuration not stated) [MODAFINIL] | > 20 | > 20 |
| Cc1nccnc1N1CCCCC1 [MODALINE] | > 20 | > 20 |
| COc1cc(C(=O)Nc2ccccc2CCC2CCCCN2C)ccc1O (configuration not stated) [MODECAINIDE] | > 20 | > 20 |
| CCOC(=O)[C@H](CCc1ccccc1)N[C@@H](C)C(=O)N1Cc2cc(OC)c(OC)cc2C[C@H]1C(=O)O [MOEXIPRIL] | > 20 | > 20 |
| CCc1c(C)[nH]c2c1C(=O)C(CN1CCOCC1)CC2 (configuration not stated) [MOLINDONE] | > 20 | > 20 |
| CCOC(=O)[N-]c1c[n+](N2CCOCC2)no1 [MOLSIDOMINE] | > 20 | > 20 |
| N#CCNC(=O)c1ccc(-c2ccnc(Nc3ccc(N4CCOCC4)cc3)n2)cc1 [MOMELOTINIB] | > 20 | > 20 |
| C[C@@H]1C[C@H]2[C@@H]3CCC4=CC(=O)C=C[C@]4(C)[C@@]3(Cl)[C@@H](O)C[C@]2(C)[C@@]1(OC(=O)c1ccco1)C(=O)CCl [MOMETASONE FUROATE] | > 20 | > 20 |
| CC[C@@]1([C@@H]2O[C@@H]([C@H]3O[C@@](O)(CO)[C@H](C)C[C@@H]3C)C[C@@H]2C)CC[C@H]([C@]2(C)CC[C@]3(C[C@H](O)[C@@H](C)[C@@H]([C@@H](C)[C@@H](OC)[C@H](C)C(=O)O)O3)O2)O1 [MONENSIN] | > 20 | > 20 |
| Oc1ccc(OCc2ccccc2)cc1 [MONOBENZONE] | > 20 | > 20 |
| C[C@H]1C(=O)O[C@@H]2CCN3CC=C(COC(=O)[C@](C)(O)[C@]1(C)O)[C@H]23 [MONOCROTALINE] | > 20 | > 20 |
| NCCO [MONOETHANOLAMINE] | > 20 | > 20 |
| COC(=O)/C=C/C(=O)O [MONOMETHYL FUMARATE] | > 20 | > 20 |
| CC(C)(O)c1ccccc1CC[C@@H](SCC1(CC(=O)O)CC1)c1cccc(/C=C/c2ccc3ccc(Cl)cc3n2)c1 [MONTELUKAST] | > 20 | > 20 |
| Cc1ccc(C2(O)CCN(CCCC(=O)c3ccc(F)cc3)CC2)cc1 [MOPERONE] | > 20 | > 20 |

| Structure (SMILES) | IC50 [µM] | IC50 (read-out: pIC50 (converted)) [µM] |
| --- | --- | --- |
| COc1ccccc1OCC(O)CNC(C)C (configuration not stated) [MOPROLOL] | > 20 | > 20 |
| Cc1ccsc1/C=C/C1=NCCCN1C [MORANTEL] | > 20 | > 20 |
| CCOC(=O)Nc1ccc2c(c1)N(C(=O)CCN1CCOCC1)c1ccccc1S2 [MORICIZINE] | > 20 | > 20 |
| O=c1c(O)c(-c2ccc(O)cc2O)oc2cc(O)cc(O)c12 [MORIN] | > 20 | > 20 |
| O=C(OCCN1CCOCC1)c1cccnc1Nc1cccc(C(F)(F)F)c1 [MORNIFLUMATE] | > 20 | > 20 |
| N=C(N)NC(=N)N1CCOCC1 [MOROXYDINE] | > 20 | > 20 |
| CCOC(=O)C1(c2ccccc2)CCN(CCN2CCOCC2)CC1 [MORPHERIDINE] | > 20 | > 20 |
| CCOc1cc(N)c(Cl)cc1C(=O)NCC1CN(Cc2ccc(F)cc2)CCO1 (configuration not stated) [MOSAPRIDE] | > 20 | > 20 |
| CC1(C)CNc2cc(NC(=O)c3cccnc3NCc3ccncc3)ccc21 [MOTESANIB] | > 20 | > 20 |
| CCCN(CCC)C(=O)C1=Cc2ccc(-c3ccc(C(=O)N4CCCC4)cc3)cc2N=C(N)C1 [MOTOLIMOD] | > 20 | > 20 |
| COc1c(N2C[C@@H]3CCCN[C@@H]3C2)c(F)cc2c(=O)c(C(=O)O)cn(C3CC3)c12 [MOXIFLOXACIN] | > 20 | > 20 |
| CC(=O)Oc1cc(C(C)C)c(OCCN(C)C)cc1C [MOXISYLYTE] | > 20 | > 20 |
| Cn1c([N+](=O)[O-])cnc1/C=N/N1CC(CN2CCOCC2)OC1=O (configuration not stated) [MOXNIDAZOLE] | > 20 | > 20 |
| COc1nc(C)nc(Cl)c1NC1=NCCN1 [MOXONIDINE] | > 20 | > 20 |
| Cc1ccccc1C(=O)Nc1ccc(C(=O)N2CCCC(N(C)C)c3ccccc32)cc1 (configuration not stated) [MOZAVAPTAN] | > 20 | > 20 |
| CC(c1ccc(Cl)c(Cl)c1)N1N=C(N)CC1=O (configuration not stated) [MUZOLIMINE] | > 20 | > 20 |
| COc1c(C)c2c(c(O)c1C/C=C(\C)CCC(=O)OCCN1CCOCC1)C(=O)OC2 [MYCOPHENOLATE MOFETIL] | > 20 | > 20 |
| COc1c(C)c2c(c(O)c1C/C=C(\C)CCC(=O)O)C(=O)OC2 [MYCOPHENOLIC ACID] | > 20 | > 20 |
